Patent US5140014A (Abbott Laboratories, priority 1989, dated 1992)
Converted amounts (≈) assume the structure as drawn. Read-outs that look alike come from different tables or passages of the source.

Tests used:
Assay in all cases: in vitro antibacterial activity, agar dilution method (MIC)
Format in all cases: cell-based
Haemophilus Influenzae = settings: Haemophilus influenzae, BHI agar, 20-24 hours
Procedure: (§1) The test medium was Brain Heart Infusion (BHI) agar. The antibacterial agent was dissolved at a concentration of 2,000 ug/mL. Test plates were then prepared, usually 12 two-fold dilutions. After adding the sample to the plates, 10 mL of cooled BHI agar medium was added to each plate. The organisms were grown overnight in BHI broth (Difco) in a 35°-37° C. incubator.
(§2) On the day of testing, the bacterial suspensions were diluted 1:100 in sterile distilled water, except for a few slow-growing organisms (usually Micrococcus and Streptococcus) which were diluted 1:10. The plate was then inoculated with approximately 10^4 organisms. This was incubated in a 35°-37° C. incubator for 20-24 hours. Thereafter, the plates were read to determine the minimum inhibitory concentration (MIC) defined as the lowest concentration of drug yielding no growth on the plate, a slight haze, or sparsely isolated colonies on the inoculum spot as compared to the growth control.

Providencia Stuartii = settings: Providencia stuartii; strain CMX 640; BHI agar, 20-24 hours; read-out: MIC
Procedure: as §1, §2

Staphylococcus Aureus = settings: Staphylococcus aureus
Procedure: as §1, §2

Streptococcus Bovis = settings: Streptococcus equinus, strain A5169; BHI agar, 20-24 hours
Procedure: as §1, §2

Acinetobacter Sp = settings: Acinetobacter, strain CMX 669; BHI agar, 20-24 hours; read-out: MIC
Procedure: as §1, §2

Streptococcus Pyogenes = settings: Streptococcus pyogenes
Procedure: as §1, §2

Pseudomonas Aeruginosa = settings: Pseudomonas aeruginosa, BHI agar, 20-24 hours, read-out: MIC
Procedure: as §1, §2

Streptococcus Agalactiae = settings: Streptococcus agalactiae, strain CMX 508; BHI agar, 20-24 hours; read-out: MIC
Procedure: as §1, §2

Micrococcus Luteus = settings: Micrococcus luteus
Procedure: as §1, §2

Klebsiella Pneumoniae = settings: Klebsiella pneumoniae, ATCC8045, strain ATCC 8045; BHI agar, 20-24 hours; read-out: MIC
Procedure: as §1, §2

Enterobacter Aerogenes = settings: Klebsiella aerogenes, ATCC13048, strain ATCC 13048; BHI agar, 20-24 hours; read-out: MIC
Procedure: as §1, §2

Enterococcus Faecium = settings: Enterococcus faecium, ATCC8043, strain ATCC 8043; BHI agar, 20-24 hours; read-out: MIC
Procedure: as §1, §2

[1] = test system: Staphylococcus Epidermidis; settings: Staphylococcus epidermidis, strain 3519; BHI agar, 20-24 hours; read-out: MIC
Procedure: as §1, §2

Escherichia Coli = settings: Escherichia coli, BHI agar, 20-24 hours, read-out: MIC
Procedure: as §1, with “Compounds 1 to 8 were evaluated for antibacterial activity by the agar dilution method to determine the degree of in vitro susceptibility of aerobic microorganisms to antimicrobial agents. The test” for “The test”
as §2

Pseudomonas Cepacia = settings: Burkholderia cepacia; strain 296I; BHI agar, 20-24 hours; read-out: MIC
Procedure: as §1, with “Compounds 1 to 8 were evaluated for antibacterial activity by the agar dilution method to determine the degree of in vitro susceptibility of aerobic microorganisms to antimicrobial agents. The test” for “The test”
as §2

[2] = ATCC43095, strain ATCC 43095, read-out: MIC
[3] = NCTC10649, strain NCTC 10649, BHI agar, 20-24 hours, read-out: MIC
[4] = strain 45, BHI agar, 20-24 hours, read-out: MIC
[5] = strain 45 RAR2, BHI agar, 20-24 hours, read-out: MIC
[6] = strain 642A, BHI agar, 20-24 hours, read-out: MIC
[7] = strain A5177, BHI agar, 20-24 hours, read-out: MIC
[8] = strain CMX 553, BHI agar, 20-24 hours, read-out: MIC
[9] = strain 930 CONST, BHI agar, 20-24 hours, read-out: MIC
[10] = strain 2548 INDUC, BHI agar, 20-24 hours, read-out: MIC
[11] = ATCC4698, strain ATCC 4698, BHI agar, 20-24 hours, read-out: MIC

`CCC1OC(=O)CC(O)C(C)C(OC2OC(C)CC(N(C)C)C2O)C(CC=O)CC(C)C(N(C)C)C=CC2(C)OC2C1C` (stereo not shown) [Example 1, [9R]-9-Deoxo-9-N,N-dimethylamino-rosaramicin] gave an MIC (Haemophilus Influenzae; ATCC9795, strain ATCC 9795) of 1 µg/mL (≈ 1.64 µM), an MIC (Haemophilus Influenzae; ATCC10211, strain ATCC 10211) of 1 µg/mL (≈ 1.64 µM) and an MIC (Haemophilus Influenzae; ATCC19418, strain ATCC 19418) of 1 µg/mL (≈ 1.64 µM). The MIC (Haemophilus Influenzae; [2]) was 0.25 µg/mL (≈ 0.409 µM), the MIC (Haemophilus Influenzae; strain 503B) was 1 µg/mL (≈ 1.64 µM) and the MIC (Haemophilus Influenzae; strain 504) was 1 µg/mL (≈ 1.64 µM). For the same compound, the MIC (Haemophilus Influenzae; strain 519A, read-out: MIC) was 0.5 µg/mL (≈ 0.819 µM), the MIC (Haemophilus Influenzae; strain 566A, read-out: MIC) was 2 µg/mL (≈ 3.27 µM) and the MIC (Haemophilus Influenzae; strain 588A) was 1 µg/mL (≈ 1.64 µM). It also gave an MIC (Haemophilus Influenzae; strain 632A) of 1 µg/mL (≈ 1.64 µM), an MIC (Haemophilus Influenzae; strain 667A) of 1 µg/mL (≈ 1.64 µM) and an MIC (Haemophilus Influenzae; strain 747C) of 1 µg/mL (≈ 1.64 µM). For the same compound, the MIC (Haemophilus Influenzae; strain 751, read-out: MIC) was 2 µg/mL (≈ 3.27 µM), the MIC (Haemophilus Influenzae; strain 1177, read-out: MIC) was 0.06 µg/mL (≈ 0.0982 µM) and the MIC (Haemophilus Influenzae; strain 1435, read-out: MIC) was 0.5 µg/mL (≈ 0.819 µM). The MIC (Haemophilus Influenzae; strain DILL AMP R) was 1 µg/mL (≈ 1.64 µM), the MIC (Haemophilus Influenzae; strain SOL AMP R) was 1 µg/mL (≈ 1.64 µM) and the MIC (Haemophilus Influenzae; strain SPK AMP R) was 1 µg/mL (≈ 1.64 µM). For the same compound, the MIC (Providencia Stuartii) was over 100 µg/mL, the MIC (Staphylococcus Aureus; ATCC6538P) was 0.78 µg/mL (≈ 1.28 µM) and the MIC (Staphylococcus Aureus; [3]) was 0.78 µg/mL (≈ 1.28 µM). The MIC (Staphylococcus Aureus; [4]) was 0.78 µg/mL (≈ 1.28 µM), the MIC (Staphylococcus Aureus; [5]) was 0.78 µg/mL (≈ 1.28 µM) and the MIC (Staphylococcus Aureus; [6]) was 0.78 µg/mL (≈ 1.28 µM). For the same compound, the MIC (Staphylococcus Aureus; [7]) was 1.56 µg/mL (≈ 2.55 µM), the MIC (Staphylococcus Aureus; [8]) was 0.78 µg/mL (≈ 1.28 µM) and the MIC (Streptococcus Bovis) was 0.05 µg/mL (≈ 0.0819 µM). For the same compound, the MIC (Acinetobacter Sp) was 1.56 µg/mL (≈ 2.55 µM), the MIC (Streptococcus Pyogenes) was 0.05 µg/mL (≈ 0.0819 µM) and the MIC (Streptococcus Pyogenes; [9]) was over 100 µg/mL. For the same compound, the MIC (Streptococcus Pyogenes; [10]) was 0.39 µg/mL (≈ 0.638 µM), the MIC (Pseudomonas Aeruginosa; strain A5007) was over 100 µg/mL and the MIC (Pseudomonas Aeruginosa; strain BMH10) was 50 µg/mL (≈ 81.9 µM). The MIC (Pseudomonas Aeruginosa; strain K799/61) was 0.78 µg/mL (≈ 1.28 µM), the MIC (Pseudomonas Aeruginosa; strain K799/WT) was 50 µg/mL (≈ 81.9 µM) and the MIC (Streptococcus Agalactiae) was 0.1 µg/mL (≈ 0.164 µM). For the same compound, the MIC (Micrococcus Luteus; [11]) was 0.2 µg/mL (≈ 0.327 µM), the MIC (Micrococcus Luteus; ATCC9341) was 0.1 µg/mL (≈ 0.164 µM) and the MIC (Klebsiella Pneumoniae) was 12.5 µg/mL (≈ 20.5 µM). For the same compound, the MIC (Enterobacter Aerogenes) was 6.2 µg/mL (≈ 10.2 µM), the MIC (Enterococcus Faecium) was 0.39 µg/mL (≈ 0.638 µM) and the MIC [1] was 0.78 µg/mL (≈ 1.28 µM). It also gave an MIC (Escherichia Coli; strain DC-2) of 3.1 µg/mL (≈ 5.08 µM), an MIC (Escherichia Coli; strain H560) of 0.78 µg/mL (≈ 1.28 µM) and an MIC (Escherichia Coli; strain JUHL) of 6.2 µg/mL (≈ 10.2 µM). For the same compound, the MIC (Escherichia Coli; strain KNK 437) was 6.2 µg/mL (≈ 10.2 µM), the MIC (Escherichia Coli; strain SS) was 0.1 µg/mL (≈ 0.164 µM) and the MIC (Pseudomonas Cepacia) was 100 µg/mL (≈ 164 µM).

With `CC[C@H]1OC(=O)C[C@@H](O)[C@H](C)[C@@H](O[C@@H]2O[C@H](C)C[C@H](N(C)C)[C@H]2O)[C@@H](CC=O)C[C@@H](C)C(=O)/C=C/[C@]2(C)O[C@H]2[C@@H]1C` [Rosaramicin, 5-O-(4'-deoxy-mycaminosyl)-12,13-epoxy-23-deoxy-tylonide, reference compound] the MIC (Haemophilus Influenzae; ATCC9795, strain ATCC 9795) was 1 µg/mL (≈ 1.72 µM), the MIC (Haemophilus Influenzae; ATCC10211, strain ATCC 10211, read-out: MIC) was 0.5 µg/mL (≈ 0.859 µM) and the MIC (Haemophilus Influenzae; ATCC19418, strain ATCC 19418) was 1 µg/mL (≈ 1.72 µM). For the same compound, the MIC (Haemophilus Influenzae; [2]) was 0.5 µg/mL (≈ 0.859 µM), the MIC (Haemophilus Influenzae; strain 503B) was 1 µg/mL (≈ 1.72 µM) and the MIC (Haemophilus Influenzae; strain 504) was 1 µg/mL (≈ 1.72 µM). It also gave an MIC (Haemophilus Influenzae; strain 519A, read-out: MIC) of 0.5 µg/mL (≈ 0.859 µM), an MIC (Haemophilus Influenzae; strain 566A) of 1 µg/mL (≈ 1.72 µM) and an MIC (Haemophilus Influenzae; strain 588A, read-out: MIC) of 0.5 µg/mL (≈ 0.859 µM). It also gave an MIC (Haemophilus Influenzae; strain 632A) of 1 µg/mL (≈ 1.72 µM), an MIC (Haemophilus Influenzae; strain 667A) of 1 µg/mL (≈ 1.72 µM) and an MIC (Haemophilus Influenzae; strain 747C, read-out: MIC) of 0.5 µg/mL (≈ 0.859 µM). It also gave an MIC (Haemophilus Influenzae; strain 751) of 1 µg/mL (≈ 1.72 µM), an MIC (Haemophilus Influenzae; strain 1177, read-out: MIC) of 0.12 µg/mL (≈ 0.206 µM) and an MIC (Haemophilus Influenzae; strain 1435, read-out: MIC) of 0.5 µg/mL (≈ 0.859 µM). It also gave an MIC (Haemophilus Influenzae; strain DILL AMP R, read-out: MIC) of 0.5 µg/mL (≈ 0.859 µM), an MIC (Haemophilus Influenzae; strain SOL AMP R, read-out: MIC) of 0.5 µg/mL (≈ 0.859 µM) and an MIC (Haemophilus Influenzae; strain SPK AMP R, read-out: MIC) of 0.5 µg/mL (≈ 0.859 µM). It also gave an MIC (Providencia Stuartii) of 100 µg/mL (≈ 172 µM), an MIC (Staphylococcus Aureus; ATCC6538P) of 0.39 µg/mL (≈ 0.67 µM) and an MIC (Staphylococcus Aureus; [3]) of 0.39 µg/mL (≈ 0.67 µM). The MIC (Staphylococcus Aureus; [4]) was 0.39 µg/mL (≈ 0.67 µM), the MIC (Staphylococcus Aureus; [5]) was 0.39 µg/mL (≈ 0.67 µM) and the MIC (Staphylococcus Aureus; [6]) was 0.39 µg/mL (≈ 0.67 µM). The MIC (Staphylococcus Aureus; [7]) was 0.78 µg/mL (≈ 1.34 µM), the MIC (Staphylococcus Aureus; [8]) was 0.39 µg/mL (≈ 0.67 µM) and the MIC (Acinetobacter Sp) was 12.5 µg/mL (≈ 21.5 µM). The MIC (Streptococcus Pyogenes; [9]) was over 100 µg/mL, the MIC (Streptococcus Pyogenes; [10]) was 0.39 µg/mL (≈ 0.67 µM) and the MIC (Streptococcus Pyogenes; strain EES61, BHI agar, 20-24 hours, read-out: MIC) was 0.1 µg/mL (≈ 0.172 µM). For the same compound, the MIC (Pseudomonas Aeruginosa; strain A5007) was 100 µg/mL (≈ 172 µM), the MIC (Pseudomonas Aeruginosa; strain BMH10) was 50 µg/mL (≈ 85.9 µM) and the MIC (Pseudomonas Aeruginosa; strain K799/61) was 0.78 µg/mL (≈ 1.34 µM). It also gave an MIC (Pseudomonas Aeruginosa; strain K799/WT) of 25 µg/mL (≈ 43 µM), an MIC (Streptococcus Agalactiae) of 0.2 µg/mL (≈ 0.344 µM) and an MIC (Micrococcus Luteus; [11]) of 0.1 µg/mL (≈ 0.172 µM). For the same compound, the MIC (Klebsiella Pneumoniae) was 12.5 µg/mL (≈ 21.5 µM), the MIC (Enterobacter Aerogenes) was 25 µg/mL (≈ 43 µM) and the MIC (Enterococcus Faecium) was 0.39 µg/mL (≈ 0.67 µM). It also gave an MIC [1] of 0.39 µg/mL (≈ 0.67 µM), an MIC (Escherichia Coli; strain DC-2) of 12.5 µg/mL (≈ 21.5 µM) and an MIC (Escherichia Coli; strain H560) of 6.2 µg/mL (≈ 10.7 µM). The MIC (Escherichia Coli; strain JUHL) was 12.5 µg/mL (≈ 21.5 µM), the MIC (Escherichia Coli; strain KNK 437) was 25 µg/mL (≈ 43 µM) and the MIC (Escherichia Coli; strain SS) was 0.2 µg/mL (≈ 0.344 µM). It also gave an MIC (Pseudomonas Cepacia) of 25 µg/mL (≈ 43 µM).
